Assay results taken from PubChem BioAssay (NCI).
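Results reflect a 48-hour exposure of cells in 96-well plates to compound at five concentrations. GI50 is the concentration that inhibits growth by half. TGI marks complete inhibition of growth.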

Tests used:
Assay in all cases: DTP human tumour cell line panel, 48 h
RPMI-8226 leukemia = tested on: RPMI-8226 leukemia
ACHN renal = tested on: ACHN renal
SN12C renal = tested on: SN12C renal
786-0 renal = tested on: 786-0 renal
K-562 leukemia = tested on: K-562 leukemia
OVCAR-4 ovarian = tested on: OVCAR-4 ovarian
LOX IMVI melanoma = tested on: LOX IMVI melanoma
IGROV1 ovarian = tested on: IGROV1 ovarian
HS 578T breast = tested on: HS 578T breast
MDA-MB-435 = tested on: MDA-MB-435
OVCAR-5 ovarian = tested on: OVCAR-5 ovarian
CAKI-1 renal = tested on: CAKI-1 renal
OVCAR-3 ovarian = tested on: OVCAR-3 ovarian
SW-620 colon = tested on: SW-620 colon
U251 CNS = tested on: U251 CNS
T-47D breast = tested on: T-47D breast
DU-145 prostate = tested on: DU-145 prostate
SK-OV-3 ovarian = tested on: SK-OV-3 ovarian
NCI-H460 lung = tested on: NCI-H460 lung
MALME-3M melanoma = tested on: MALME-3M melanoma
HL-60(TB) leukemia = tested on: HL-60(TB) leukemia
HCT-116 colon = tested on: HCT-116 colon
SK-MEL-2 melanoma = tested on: SK-MEL-2 melanoma
MDA-MB-231 breast = tested on: MDA-MB-231 breast
HCC-2998 colon = tested on: HCC-2998 colon
UACC-257 melanoma = tested on: UACC-257 melanoma
RXF 393 renal = tested on: RXF 393 renal
BT-549 breast = tested on: BT-549 breast
SF-295 CNS = tested on: SF-295 CNS

## CCN1C(C)(C)CC(Oc2ccc(C(=O)Nc3ccc(NC(=O)Nc4cc(C(C)(C)C)on4)cc3)nc2)CC1(C)C
RPMI-8226 leukemia
  GI50: 1.96 µM
  TGI: 4.72 µM
ACHN renal
  GI50: 2.05 µM
  TGI: 4.37 µM
SN12C renal
  GI50: 1.66 µM
  TGI: 3.4 µM
786-0 renal
  GI50: 1.66 µM
  TGI: 3.52 µM
K-562 leukemia
  GI50: 1.69 µM
  TGI: 3.76 µM
OVCAR-4 ovarian
  GI50: 5.23 µM
  TGI: 25.9 µM
LOX IMVI melanoma
  GI50: 1.78 µM
  TGI: 3.31 µM
IGROV1 ovarian
  GI50: 6.86 µM
  TGI: 47.5 µM
HS 578T breast
  GI50: 1.44 µM
  TGI: 6.06 µM
MDA-MB-435
  GI50: 1.82 µM
  TGI: 3.47 µM
OVCAR-5 ovarian
  GI50: 2.94 µM
  TGI: 11.4 µM
CAKI-1 renal
  GI50: 1.98 µM
  TGI: 5.35 µM
OVCAR-3 ovarian
  GI50: 1.78 µM
  TGI: 3.86 µM
SW-620 colon
  GI50: 2.1 µM
  TGI: 4.37 µM
U251 CNS
  GI50: 1.68 µM
  TGI: 3.58 µM
T-47D breast
  GI50: 2.34 µM
  TGI: 7.2 µM
DU-145 prostate
  GI50: 1.87 µM
  TGI: 3.72 µM
SK-OV-3 ovarian
  GI50: 6.03 µM
  TGI: 15.9 µM
NCI-H460 lung
  GI50: 1.89 µM
  TGI: 3.69 µM
MALME-3M melanoma
  GI50: 1.61 µM
  TGI: 3.37 µM
HL-60(TB) leukemia
  GI50: 2.02 µM
  TGI: 4.38 µM
HCT-116 colon
  GI50: 1.99 µM
  TGI: 3.68 µM
SK-MEL-2 melanoma
  GI50: 2.09 µM
  TGI: 4.89 µM
MDA-MB-231 breast
  GI50: 2.02 µM
  TGI: 4.82 µM
HCC-2998 colon
  GI50: 1.9 µM
  TGI: 4.17 µM
UACC-257 melanoma
  GI50: 2.2 µM
  TGI: 4.02 µM
RXF 393 renal
  GI50: 1.64 µM
  TGI: 3.36 µM
BT-549 breast
  GI50: 4.53 µM
  TGI: 10.3 µM
SF-295 CNS
  GI50: 1.67 µM
  TGI: 3.27 µM
